Drawing on patent publication US20250017935A1, “7,8-DIHYDRO-5H-1,6-NAPHTHYRIDINE DERIVATIVES AS POSITIVE ALLOSTERIC MODULATORS OF THE MUSCARINIC ACETYLCHOLINE RECEPTOR M4 FOR TREATING NEUROLOGICAL AND PSYCHIATRIC DISORDERS” (Vanderbilt University, priority 2021, published 2025), this text covers Emax and EC50 for 4 compounds.

The target in the experiment is T1, Human M4 (Homo sapiens, UniProt P08173).
T1 construct: expressed in transfected cells; host or cells: CHO-K1 (ATCC), stably expressing hM4 and Gqi5
T1 sequence (P08173 1-479): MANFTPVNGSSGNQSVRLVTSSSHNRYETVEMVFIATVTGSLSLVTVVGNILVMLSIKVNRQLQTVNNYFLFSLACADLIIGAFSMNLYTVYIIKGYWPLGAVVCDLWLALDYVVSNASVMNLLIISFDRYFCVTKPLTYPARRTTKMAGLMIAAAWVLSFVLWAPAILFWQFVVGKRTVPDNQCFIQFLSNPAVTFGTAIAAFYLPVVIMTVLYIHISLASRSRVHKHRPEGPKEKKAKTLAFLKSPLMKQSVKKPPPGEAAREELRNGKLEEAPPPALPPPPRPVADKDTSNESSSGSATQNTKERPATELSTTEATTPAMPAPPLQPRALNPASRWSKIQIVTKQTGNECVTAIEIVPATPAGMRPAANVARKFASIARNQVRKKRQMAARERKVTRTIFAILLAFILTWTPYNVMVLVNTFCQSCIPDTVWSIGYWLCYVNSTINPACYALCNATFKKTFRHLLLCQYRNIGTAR
The experiment can be described thus: mAChR M4 cell-based functional assay (calcium flux, potentiation of EC20 acetylcholine response) in hM4-Gqi5 CHO-K1 cells. Particulars: for Emax at 30 µM: % ACh maximum at 30 μM, human M4 CHO-K1 cells; for EC50: CHO-K1 cells transfected with human M4 and Gqi5, positive allosteric modulator activity, EC20 acetylcholine. The method, boiled down: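 CHO-K1 cells stably expressing human M4 with chimeric Gqi5, Fluo-4 AM-loaded; 11-point 1:3 compound series added, intracellular calcium recorded by FDSS at 1 Hz. PAM EC50 is concentration giving 50% of maximal compound-induced increase above the acetylcholine EC20 baseline, from four-parameter logistic fit; Emax also derived.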
In general terms: A change in cytosolic calcium serves as a functional read-out for many receptors and channels.

Usually Emax stands for the size of the effect at its maximum, as opposed to the concentration needed. The term EC50 denotes the midpoint of the concentration-response curve.

On to `Clc1nc2c(c(N3CCc4ncc(C5CC5)cc4C3)n1)COC2` [Compound 66, 2-chloro-4-(3-cyclopropyl-7,8-dihydro-1,6-naphthyridin-6(5H)-yl)-5,7-dihydrofuro[3,4-d]pyrimidine], for which the Emax at 30 µM amounted to 54% and the EC50 turned out to be 580 nM.
In the case of `Cn1nccc1Nc1cnc2c(c1)CN(c1nc(Cl)nc3c1COC3)CC2` [Compound 67, 6-(2-chloro-5,7-dihydrofuro[3,4-d]pyrimidin-4-yl)-N-(1-methyl-1H-pyrazol-5-yl)-5,6,7,8-tetrahydro-1,6-naphthyridin-3-amine], the Emax at 30 µM was 51% and the EC50 came out at 1220 nM.
`Fc1ncccc1Nc1cnc2c(c1)CN(c1nc(Cl)nc3c1COC3)CC2` [Compound 68, 6-(2-chloro-5,7-dihydrofuro[3,4-d]pyrimidin-4-yl)-N-(2-fluoropyridin-3-yl)-5,6,7,8-tetrahydro-1,6-naphthyridin-3-amine]: the Emax at 30 µM turned out to be 51% and the EC50 worked out at 920 nM.
Taken in the same sequence, the figures for `Fc1ccccc1Oc1cnc2c(c1)CN(c1nc(Cl)nc3c1COC3)CC2` [Compound 69, 2-chloro-4-(3-(2-fluorophenoxy)-7,8-dihydro-1,6-naphthyridin-6(5H)-yl)-5,7-dihydrofuro[3,4-d]pyrimidine] were 42% and 990 nM.
